Data published in patent US20170216399A1, “COMPOSITIONS, METHODS AND USES FOR PROTECTING WHITE BLOOD CELLS FROM SUPPRESSION OR DEATH” (LOS ANGELES BIOMEDICAL RESEARCH INSTITUTE AT HARBO-UCLA …, priority 2014, published 2017).
Marks after values point to notes of the source that are not given here. Ends that are not written are not given here.

Experiments:
[1] = system: cells; conditions: HN mutant compared with HN; cited from earlier work
[2] = system: murine B16 melanoma cells; test: Lung melanoma metastases in B16 tumor-bearing mice; format: in vivo, mouse; conditions: treatment alone vs non-treated tumor-bearing mice
Description: In this study the tumor loading dose was 1×10^5 B16 cells per mouse to examine the effects of HNG on peripheral blood leucocytes, plasma IGF-1 and IGFBP-1 levels while confirming its additive or synergistic effect on CP-induced suppression of lung melanoma metastases. Twenty-five young adult (12-week-old) male mice (C57BL/6J) were used for this experiment in which 5 mice were used as control and 20 mice of each were intravenously inoculated via the tail vein with 1×10^5 murine B16 melanoma cells. 20 tumor-bearing mice were randomly divided into 4 groups with 5 mice in each group received 1) no treatment; 2) HNG alone; 3) CP alone; and 4) a combination treatment with the doses and duration described above.

[3] = system: peripheral blood leucocytes
Procedure: (§1) Mice were injected with heparin (1300 IU/kg BW, ip) 15 min before sacrifice by sodium pentobarbital (200 mg/kg BW IP). Body weight (BW) was recorded at autopsy. Blood samples were collected from the right ventricle of each mouse immediately after death and used for complete blood count using an automated cell counter (VetScanHM2, ABAXIS, Union City, Calif.). Plasma was separated and stored at −20° C. for subsequent HNG, IGF-1 and IGFBP-1 measurements by specific and sensitive ELISA assays as previously described (Chin et al., Endocrinology. 2013; 154:3739-44; Hwang et al, Growth Horm IGF Res 2008; 18: 65-74).
(§2) Twenty-five young adult (12-week-old) male mice (C57BL/6J) were used for this experiment in which 5 mice were used as control and 20 mice of each were intravenously inoculated via the tail vein with 1×10^5 murine B16 melanoma cells. 20 tumor-bearing mice were randomly divided into 4 groups with 5 mice in each group received 1) no treatment; 2) HNG alone; 3) CP alone; and 4) a combination treatment with the doses and duration described above.

[4] = system: germ cells; conditions: cited from earlier work
[5] = system: red blood cell or platelet; test: Red blood cell and platelet counts in B16 tumor-bearing mice
Procedure: as §1, §2

[6] = system: IGF-1; test: Plasma IGF-1 levels among groups in healthy mice (Table 6); format: in vivo, mouse; conditions: mean ± SEM
Procedure: (§3) Body weight (BW) was recorded at autopsy.

[7] = system: white blood cells; format: in vivo
Procedure: as §3
The effect of a potent HN analog HNG (HN-S14G) (5mg/KG/day, IP) with and without concomitant cyclophosphamide (CP, 200 mg IP) treatment was administered to 4 adult healthy mice in each group. Another four mice served as controls. Two days after treatment, the animals were killed and their peripheral blood cells were collected and the blood cell counts were assessed by a blood cell counter.

[8] = system: peripheral leucocytes; test: Peripheral leucocytes among treatment groups of healthy mice (Table 7); format: in vivo, mouse; conditions: mean ± SEM
Procedure: as §3

[9] = system: white blood cells; format: in vivo; conditions: CP 200 mg IP single dose, melanoma-bearing mice (FIG. 2)
Procedure: The effect of a potent HN analog HNG (HN-S14G) with or without cyclophosphamide (CP) in a mouse melanoma with lung metastasis model was studied. Five mice were used as control (Con) and 40 mice were inoculated intravenously with B16 murine melanoma cells. Of these mice five received no further treatment (NT). A week later the remaining 35 mice (n=5 per group) were treated for additional 2 weeks with: • 1) HNG 0.05 mg/KG body weight (BW) daily IP injection for 2 weeks; • 2) HNG 0.5 mg mg/Kg BW daily IP injection for 2 weeks; • 3) HNG 5 mg/Kg BW daily IP injection for 2 weeks; • 4) a single CP (200 mg IP single dose) injection+HNG 0.05 mg/KG body weight (BW) daily IP injection for 2 weeks; • 5) a single CP (200 mg IP single dose) injection+HNG 0.5 mg mg/Kg BW daily IP injection for 2 weeks; • 6) a single CP (200 mg IP single dose) injection HNG 0.5 mg mg/Kg BW daily IP injection for 2 weeks; • 7) a single CP (200 mg IP single dose) injection+HNG 5 mg mg/Kg BW daily IP injection.
All mice were sacrificed three weeks after tumor inoculation and two weeks after CP/HNG treatment. Blood was obtained for the measurement of white blood cell (WBC) count by a Coulter Counter.

[10] = system: IGF-1; test: Plasma IGF-1 levels (ELISA) in B16 tumor-bearing mice; format: in vivo, mouse; conditions: treatment alone, tumor-bearing mice (FIG. 3B)
Procedure: as §1, §2

[11] = system: IGFBP-1; test: Plasma IGFBP-1 levels among groups in healthy mice (Table 6); format: in vivo, mouse; conditions: mean ± SEM
Procedure: as §3

[12] = mouse, in vivo
Procedure: as §1, §2

[13] = mouse, in vivo; remark: listed apart in the source
[14] = during in vivo treatment with CP (Drumond, et al., 2011)

## HN-C8P: MAPRGFSPLLLLTSEIDLPVKRRA (SEQ ID NO: 25); Cys8 to Pro
[1]
  Cytoprotective Action: Not effective, blocks

## HN-F6A: MAPRGASCLLLLTSEIDLPVKRRA (SEQ ID NO: 22); Phe6 to Ala
[1]
  Cytoprotective Action: Similar/more effective

## HN-C8A: Cys8 to Ala; MAPRGFSALLLLTSEIDLPVKRRA (SEQ ID NO: 42)
[1]
  Cytoprotective Action: Not effective, prevents

## O=P1(N(CCCl)CCCl)NCCCO1 (stereo not shown) [CP, cyclophosphamide monohydrate]
[2]
  number of metastatic tumors in the lungs: significantly decreased
[3]; CP alone vs non-treated tumor-bearing mice (FIG. 4A)
  number of white blood cells: significantly suppressed
[3]; CP alone vs non-treated tumor-bearing mice (FIG. 4B)
  granulocytes: significantly suppressed
[3]; CP alone vs non-treated tumor-bearing mice (FIG. 4C)
  monocytes: significantly suppressed
[3]; CP alone vs non-treated tumor-bearing mice (FIG. 4D)
  lymphocytes: significantly suppressed
[4]; [14]
  differentiated germ cells of mice: eliminated
  undifferentiated germ cells remained: about half
[4]; once CP treatment was stopped (Drumond, et al., 2011)
  germ cells regenerated from undifferentiated stem cells: about 64%
[5]
  platelet counts: no significant decreases
  red blood cell counts: no significant decreases
[6]
  IGF-1 (ng/ml): 182.4 ± 10.5^c ng/ml
[7]; CP 200 mg IP alone, two days after CP treatment (FIG. 1B)
  granulocyte count in the blood, of baseline value: about 25%
[7]; CP 200 mg IP alone, two days after treatment (FIG. 1A)
  WBC, fraction of the baseline counts: about ⅕
[8]
  Granulocytes (10^6/ml): 0.2 ± 0.02^b 10^6/ml
  Lymphocytes (10^6/ml): 0.07 ± 0.01^b 10^6/ml
  Monocytes (10^6/ml): 0.01 ± 0.01^b 10^6/ml
  Total WBC (10^6/ml): 0.3 ± 0.02^b 10^6/ml
[9]
  WBC count, fraction of control values: about ⅓
[10]
  plasma IGF-1 levels: significantly suppressed
[11]
  IGFBP-1 (ng/ml): 7.4 ± 1.3^b ng/ml

## MAPRGFSCLLLLTGEIDLPVKRRA [HNG]
[12]
  plasma HNG levels: increased
[13]
  HNG (ng/ml): 80.8 ± 7.8^b ng/ml

## HN: MAPRGFSCLLLLTSEIDLPVKRRA (SEQ ID NO: 1); 24-amino acid mitochondrial derived peptide
[7]; HNG 5mg/KG/day IP alone, adult healthy mice, two days after treatment, vs controls (FIG. 1A)
  total number of white blood cells (WBC): increased slightly but significantly

## HN-S7A: MAPRGFACLLLLTSEIDLPVKRRA (SEQ ID NO: 24); Ser7 to Ala
[1]
  Cytoprotective Action: Not effective, prevents

## HN-L12A: HN mutant, Leu12 to Ala (MAPRGFSCLLLATSEIDLPVKRRA; Humanin; UniProt Q8IVG9 1-24, looked up, variant L12A)
[1]
  Cytoprotective Action: HN antagonist, forms
